Read-outs that look alike come from different tables or passages of the source.
Legend:
[1] = test system: lactic acid skin irritation; test: Lactic acid irritation trial, time zero test (anti-irritant applied simultaneously with the irritant); assay type: in vivo, humans; conditions: time zero tests; for inhibition at 250000 µM: Homo sapiens
Source text: (§1) The following scaled scores were used for sensory assessment: […]

skin irritation = test: Human clinical trials of anti-irritant activity against topical skin irritants; assay type: in vivo, humans; conditions: for anti-irritant activity: clinical trials
Experimental: The objective of the clinical trials was to determine whether and to what extent topical formulations of the calcium cation reduced or prevented skin irritation caused by certain severe skin irritants, including particularly lactic acid and glycolic acid (which are hydroxy acids), capryloyl salicylic acid (a β-hydroxy acid ester) and capsaicin (an isolate from cayenne and paprika known for its skin-irritating properties). The trials were conducted in a double blind, randomized, vehicle-controlled manner. Various formulations of the invention were tested in over 460 people.
(§2) Tests were conducted in multiple panels of from 7 to 12 subjects each. Subjects were instructed not to wear any makeup or facial lotions to the clinic the day of testing. The subjects were instructed to wash their face with Ivory bar soap in the clinic prior to application of test solutions.

[2] = test system: lactic acid skin irritation; test: Lactic acid irritation trial, pretreatment test (anti-irritant applied 15 minutes before the irritant); assay type: in vivo, humans; conditions: for Percent Inhibition (average inhibition of cumulative irritation): cation salt at 250 mM, lactic acid irritant; for inhibit skin irritation: topical solutions in Elizabeth Arden Visible Difference Refining Toner, various amounts of salt
Source text: as §1

[3] = test system: lactic acid skin irritation
Experimental: The majority of the trials were conducted using lactic acid as the skin irritant, and proceeded generally as follows.
as §2
Lactic acid skin-irritant compositions were formulated in an appropriate vehicle prior to application to the skin of the subjects.
Controls were performed by applying corresponding formulation(s) (pretreatment and/or skin-irritant composition) with an equimolar amount of sodium chloride to a contralateral portion of the subject's skin. Typically, the test materials were applied to the face of the subject.
All test solutions (including controls) were applied in a double blind, randomized fashion using the prepared solutions as previously placed in coded vial designated for use on either the right or left side of the face (or other test area). Solutions were typically applied using a cotton swab (six strokes) or sponge applicator to the face and cheek area extending from the midline of the nose over to the center of the cheek and from the cheek bone down to the jaw line. Application was made first to the right side and then to the left.
The following scaled scores were used for sensory assessment:
Symptom scores were cumulated, separately for the cation-treated and control-treated areas, for each individual and also for the panel as a whole.

[4] = cation salt at 250 mM, lactic acid irritant
[5] = representative panels, cation concentration 250 mM, vehicle 10% EtOH
[6] = pretreatment tests, representative panels, cation concentration 250 mM, vehicle VIS DIFFERENCE

## O=C(O)[C@H](O)[C@@H](O)[C@H](O)[C@H](O)CO [Calcium gluconate]
[1]; cation salt at 250 mM, lactic acid irritant, read-out: Percent Inhibition (average inhibition of cumulative irritation)
  inhibition at 250000 µM: 40%
[1]; representative panels, cation concentration 250 mM, vehicle 10% EtOH, read-out: Percent Inhibition
  inhibition at 250000 µM: 49%
Skin irritation
  anti-irritant activity: particularly active as anti-irritants
[2]; Homo sapiens, pretreatment tests, representative panels, cation concentration 250 mM, vehicle VIS DIFFERENCE, read-out: Percent Inhibition
  inhibition at 250000 µM: 40%

## [Ca+2].[Cl-].[Cl-] [Calcium chloride]
[1]; [4]
  Percent Inhibition (average inhibition of cumulative irritation): 65%
[1]; [5]
  Percent Inhibition: 61%
Skin irritation
  anti-irritant activity: particularly active as anti-irritants
[2]; pretreatment tests
  Percent Inhibition (average inhibition of cumulative irritation): 35%
[2]; [6]
  Percent Inhibition: 35%
[2]
  inhibit skin irritation: effective to inhibit skin irritation

## O=[N+]([O-])[O-].O=[N+]([O-])[O-].[Ca+2] [Calcium nitrate]
[1]; [4]
  Percent Inhibition (average inhibition of cumulative irritation): 90%
[1]; [5]
  Percent Inhibition: 85%
[3]; concentration 31 mM
  Percent Inhibition (cumulative irritation inhibition): 26%
[3]; concentration 62 mM
  Percent Inhibition (cumulative irritation inhibition): 52%
[3]; concentration 125 mM
  Percent Inhibition (cumulative irritation inhibition): 83%
[3]; concentration 250 mM
  Percent Inhibition (cumulative irritation inhibition): 82%
[3]; concentration 500 mM
  Percent Inhibition (cumulative irritation inhibition): 67%
Skin irritation
  anti-irritant activity: particularly active as anti-irritants
[2]; pretreatment tests
  Percent Inhibition (average inhibition of cumulative irritation): 45%
[2]; [6]
  Percent Inhibition: 44%
[2]
  inhibit skin irritation: effective to inhibit skin irritation

## [Ca+2] [calcium(II) (Ca^2+)]
Skin irritation; applied topically to the skin, irritants lactic acid, glycolic acid, capryloyl salicylic acid and benzoyl peroxide
  suppress stinging, burning, tingling, itching and/or erythema: effective
Skin irritation
  anti-irritant activity: significant and reproducible anti-irritant effects

## CC(=O)[O-].CC(=O)[O-].[Ca+2] [Calcium acetate]
[1]; [4]
  Percent Inhibition (average inhibition of cumulative irritation): 60%
[1]; [5]
  Percent Inhibition: 65%
Skin irritation
  anti-irritant activity: particularly active as anti-irritants
[2]; pretreatment tests
  Percent Inhibition (average inhibition of cumulative irritation): 40%
[2]; [6]
  Percent Inhibition: 30%
[2]
  inhibit skin irritation: effective to inhibit skin irritation

From patent EP0801570B1, “FORMULATIONS AND METHODS FOR REDUCING SKIN IRRITATION” (COSMEDERM TECHNOLOGIES, priority 1994, dated 1996)
